≈ marks a conversion by molar mass, not a printed value. Calls of active or inactive are those of the source. No cut-off for these calls is given here.
Tests used:
Staphylococcus aureus [1] = assay: Antibacterial activity against Staphylococcus aureus ATCC 27660 by broth microdilution method; format: functional
[2] = test system: Staphylococcus haemolyticus; assay: Antibacterial activity against Staphylococcus haemolyticus ATCC 29970 by broth microdilution method; format: functional
Bacillus cereus = assay: Antibacterial activity against Bacillus cereus ATCC 13061 by broth microdilution method; format: functional
Staphylococcus aureus [3] = assay: Antibacterial activity against Staphylococcus aureus N315 (NRS70) by broth microdilution method; format: functional
Enterococcus faecium [4] = assay: Antibacterial activity against Enterococcus faecium NCTC 7171 by broth microdilution method; format: functional
Enterococcus faecium [5] = assay: Antibacterial activity against vancomycin-resistant Enterococcus faecium 106 clinical isolate by broth microdilution method; format: functional
Staphylococcus aureus [6] = assay: Antibacterial activity against vancomycin-resistant Staphylococcus aureus VRS1 clinical isolate by broth microdilution method; format: functional
Staphylococcus aureus [7] = assay: Antibacterial activity against vancomycin-resistant Staphylococcus aureus VRS2 clinical isolate by broth microdilution method; format: functional
Staphylococcus aureus [8] = assay: Antibacterial activity against Staphylococcus aureus NRS120 by broth microdilution method; format: functional
Staphylococcus aureus [9] = assay: Antibacterial activity against Staphylococcus aureus NRS100 (COL) by broth microdilution method; format: functional
Enterococcus faecium [10] = assay: Antibacterial activity against vancomycin-susceptible Enterococcus faecium 119-39A clinical isolate by broth microdilution method; format: functional
Staphylococcus aureus [11] = assay: Antibacterial activity against Staphylococcus aureus NRS119 by broth microdilution method; format: functional
Bacillus licheniformis = assay: Antibacterial activity against Bacillus licheniformis ATCC 12759 by broth microdilution method; format: functional
[12] = test system: Staphylococcus epidermidis; assay: Antibacterial activity against Staphylococcus epidermidis ATCC 35547 by broth microdilution method; format: functional
Enterococcus faecalis [13] = assay: Antibacterial activity against Enterococcus faecalis ATCC 29212 by broth microdilution method; format: functional
[14] = Tmax in ICR mouse at 20 mg/kg, po administered as via gavage measured for 36 hrs by UPLC analysis; format: ADME, organism-based; details: in vivo
[15] = Drug level in mouse thigh infected with linezolid-resistant Staphylococcus aureus NRS119 at 40 mg/kg, po administered 1 hrs post infection and measured for 48 hrs; format: ADME, organism-based; details: read-out: Drug uptake
[16] = Distribution half life in ICR mouse at 20 mg/kg, po administered as via gavage measured for 36 hrs by UPLC analysis; format: ADME, organism-based; details: in vivo, read-out: alphat1/2 (converted)
Staphylococcus aureus [17] = assay: Antibacterial activity against Staphylococcus aureus ATCC 29213 by broth microdilution method; format: functional
[18] = Oral bioavailability in ICR mouse at 20 mg/kg administered as via gavage measured for 36 hrs by UPLC analysis; format: ADME, organism-based; details: in vivo
Enterococcus faecalis [19] = assay: Antibacterial activity against vancomycin-resistant Enterococcus faecalis 99 clinical isolate by broth microdilution method; format: functional
[20] = Clearance in ICR mouse at 20 mg/kg, iv measured for 24 hrs by UPLC analysis; format: ADME, organism-based; details: in vivo
[21] = AUC (0 to last) in ICR mouse at 20 mg/kg, po administered as via gavage measured for 36 hrs by UPLC analysis; format: ADME, organism-based; details: in vivo
[22] = Distribution half life in ICR mouse at 20 mg/kg, iv measured for 24 hrs by UPLC analysis; format: ADME, organism-based; details: in vivo, read-out: alphat1/2 (converted)
[23] = Volume of distribution in ICR mouse at 20 mg/kg, iv measured for 24 hrs by UPLC analysis; format: ADME, organism-based; details: in vivo
[24] = Cmax in ICR mouse at 20 mg/kg, po administered as via gavage measured for 36 hrs by UPLC analysis; format: ADME, organism-based; design: dose 20 mg/kg, route oral; details: in vivo
Enterococcus faecalis [25] = assay: Antibacterial activity against vancomycin-susceptible Enterococcus faecalis 201 clinical isolate by broth microdilution method; format: functional
[26] = AUC (0 to infinity) in ICR mouse at 20 mg/kg, iv measured for 24 hrs by UPLC analysis; format: ADME, organism-based; design: dose 20 mg/kg, time infinity, route intravenous; details: in vivo
[27] = Plasma protein binding in human at […] incubated for 2 hrs by UPLC analysis; format: ADME, cell-free; details: read-out: PPB (converted)
[28] = Terminal half life in ICR mouse at 20 mg/kg, po administered as via gavage measured for 36 hrs by UPLC analysis; format: ADME, organism-based; details: in vivo, read-out: beta t1/2 (converted)
[29] = Hemolytic activity in human RBC relative to control; format: ADME, cell-based, Erythrocyte; details: red blood cells (erythrocytes), read-out: Activity
[30] = AUC (0 to last) in ICR mouse at 20 mg/kg, iv measured for 24 hrs by UPLC analysis; format: ADME, organism-based; details: in vivo
[31] = AUC (0 to infinity) in ICR mouse at 20 mg/kg, po administered as via gavage measured for 36 hrs by UPLC analysis; format: ADME, organism-based; design: dose 20 mg/kg, route oral, time infinity; details: in vivo
[32] = Drug level in mouse thigh infected with linezolid-sensitive Staphylococcus aureus NRS70 at 40 mg/kg, po administered 1 hrs post infection and measured for 48 hrs; format: ADME, organism-based; details: read-out: Drug uptake
HepG2 = assay: Cytotoxicity against human HepG2 cells assessed as reduction in cell viability by XTT assay; format: cell-based
Staphylococcus aureus [33] = assay: Antibacterial activity against Staphylococcus aureus ATCC 27660 infected in mouse model of peritonitis at 20 mg/kg, iv dosed at 30 mins and 7.5 hrs post infection and measured for 2 days
Staphylococcus aureus [34] = assay: Antibacterial activity against linezolid-sensitive Staphylococcus aureus NRS70 infected in mouse model of neutropenic thigh infection assessed as reduction in bacterial count at 40 mg/kg, po administered 1 hrs post infection and measured for 48 hrs; format: functional
[35] = Terminal half life in ICR mouse at 20 mg/kg, iv measured for 24 hrs by UPLC analysis; format: ADME, organism-based; details: in vivo, read-out: beta t1/2 (converted)
Staphylococcus aureus [36] = assay: Antibacterial activity against linezolid-resistant Staphylococcus aureus NRS119 infected in mouse model of neutropenic thigh infection assessed as reduction in bacterial count at 40 mg/kg, po administered […]; format: functional

CC(=O)NC[C@H]1CN(c2ccc(N3CCOCC3)c(F)c2)C(=O)O1 [LINEZOLID]
MIC (Staphylococcus aureus [1]): 1 µg/mL (≈ 2.96 µM) | MIC [2]: 1 µg/mL (≈ 2.96 µM) | MIC (Bacillus cereus): 0.5 µg/mL (≈ 1.48 µM) | MIC (Staphylococcus aureus [3]): 1 µg/mL (≈ 2.96 µM) | MIC (Enterococcus faecium [4]): 1 µg/mL (≈ 2.96 µM) | MIC (Enterococcus faecium [5]): 1 µg/mL (≈ 2.96 µM) | MIC (Staphylococcus aureus [6]): 1 µg/mL (≈ 2.96 µM) | MIC (Staphylococcus aureus [7]): 1 µg/mL (≈ 2.96 µM) | MIC (Staphylococcus aureus [8]): 32 µg/mL (≈ 94.9 µM) | MIC (Staphylococcus aureus [9]): 1 µg/mL (≈ 2.96 µM) | MIC (Enterococcus faecium [10]): 1 µg/mL (≈ 2.96 µM) | MIC (Staphylococcus aureus [11]): 32 µg/mL (≈ 94.9 µM) | MIC (Bacillus licheniformis): 0.5 µg/mL (≈ 1.48 µM) | MIC [12]: 0.5 µg/mL (≈ 1.48 µM)

Fc1ccc(Oc2ccc(-c3noc(-c4ccc5[nH]ccc5c4)n3)cc2)cc1
MIC (Staphylococcus aureus [1]): 2 to 4 µg/mL (≈ 5.39 to 10.8 µM) | MIC [2]: 2 µg/mL (≈ 5.39 µM) | MIC (Bacillus cereus): 4 µg/mL (≈ 10.8 µM) | MIC (Staphylococcus aureus [3]): 1 µg/mL (≈ 2.69 µM) | MIC (Enterococcus faecium [4]): 1 µg/mL (≈ 2.69 µM) | MIC (Enterococcus faecium [5]): 1 µg/mL (≈ 2.69 µM) | MIC (Enterococcus faecalis [13]): 4 µg/mL (≈ 10.8 µM) | Tmax [14]: 2.5 h | concentration at 48 h [15]: 6400 ng/g | half-life [16]: 372 min | MIC (Staphylococcus aureus [6]): 1 µg/mL (≈ 2.69 µM) | MIC (Staphylococcus aureus [17]): 1 to 2 µg/mL (≈ 2.69 to 5.39 µM) | MIC (Staphylococcus aureus [7]): 1 µg/mL (≈ 2.69 µM) | bioavailability [18]: 41% | MIC (Enterococcus faecalis [19]): 4 µg/mL (≈ 10.8 µM) | MIC (Staphylococcus aureus [8]): 2 µg/mL (≈ 5.39 µM) | clearance [20]: 7.8 mL/min/kg | AUClast [21]: 718 uM.min/ml | MIC (Staphylococcus aureus [9]): 2 µg/mL (≈ 5.39 µM) | half-life [22]: 24 min | Vd [23]: 14.2 L/kg | MIC (Enterococcus faecium [10]): 1 µg/mL (≈ 2.69 µM) | Cmax [24]: 1000 ng/mL | MIC (Enterococcus faecalis [25]): 4 µg/mL (≈ 10.8 µM) | AUC [26]: 2570 uM.min/ml | fraction unbound at 2 h [27]: 0.012 | half-life [28]: 1020 min | hemolysis [29]: < 1% | AUClast [30]: 1790 uM.min/ml | AUC [31]: 1040 uM.min/ml | MIC (Staphylococcus aureus [11]): 1 to 2 µg/mL (≈ 2.69 to 5.39 µM) | concentration at 48 h [32]: 5800 ng/g | IC50 (HepG2): 37 µg/mL (≈ 99.6 µM) | Activity (Staphylococcus aureus [33]): Active | MIC (Bacillus licheniformis): 2 µg/mL (≈ 5.39 µM) | MIC [12]: 1 µg/mL (≈ 2.69 µM) | Activity (Staphylococcus aureus [34]): 1.1 log10CFU | half-life [35]: 1270 min | Activity (Staphylococcus aureus [36]): 1.5 log10CFU

FC(F)(F)c1ccc(Oc2ccc(-c3noc(-c4ccc5[nH]ccc5c4)n3)cc2)cc1
MIC (Staphylococcus aureus [1]): 4 µg/mL (≈ 9.49 µM) | MIC [2]: 4 to 8 µg/mL (≈ 9.49 to 19 µM) | MIC (Bacillus cereus): 16 µg/mL (≈ 38 µM) | MIC (Staphylococcus aureus [3]): 2 µg/mL (≈ 4.75 µM) | MIC (Enterococcus faecium [4]): 2 µg/mL (≈ 4.75 µM) | MIC (Enterococcus faecium [5]): 2 µg/mL (≈ 4.75 µM) | MIC (Enterococcus faecalis [13]): 8 µg/mL (≈ 19 µM) | concentration at 48 h [15]: 6000 ng/g | MIC (Staphylococcus aureus [6]): 2 µg/mL (≈ 4.75 µM) | MIC (Staphylococcus aureus [17]): 2 to 4 µg/mL (≈ 4.75 to 9.49 µM) | MIC (Staphylococcus aureus [7]): 2 µg/mL (≈ 4.75 µM) | MIC (Enterococcus faecalis [19]): 4 µg/mL (≈ 9.49 µM) | MIC (Staphylococcus aureus [8]): 2 µg/mL (≈ 4.75 µM) | MIC (Staphylococcus aureus [9]): 2 µg/mL (≈ 4.75 µM) | MIC (Enterococcus faecium [10]): 1 µg/mL (≈ 2.37 µM) | MIC (Enterococcus faecalis [25]): 4 µg/mL (≈ 9.49 µM) | MIC (Staphylococcus aureus [11]): 2 µg/mL (≈ 4.75 µM) | concentration at 48 h [32]: 7600 ng/g | MIC (Bacillus licheniformis): 8 µg/mL (≈ 19 µM) | MIC [12]: 2 µg/mL (≈ 4.75 µM)

— ChEMBL document CHEMBL4342484, “Structure-Activity Relationship for the Oxadiazole Class of Antibacterials” (ACS Med Chem Lett, 2020)
